Data: ChEMBL document CHEMBL5625248, “Identification of unique indolylcyanoethylenyl sulfonylanilines as novel structural scaffolds of potential antibacterial agents” (Eur J Med Chem, 2023)
Converted amounts (≈) assume the structure as drawn. The source made the active and inactive calls. The rule behind the calls is not given here.

Key:
Pseudomonas aeruginosa [1] = experiment: Antibacterial activity against Pseudomonas aeruginosa ATCC 27853 assessed as inhibition of bacterial growth incubated for 18 hrs by two fold broth microdilution assay; format: functional
Cell membrane [2] = experiment: Induction of cell membrane disruption in Escherichia coli ATCC 25922 assessed as increase in protein leakage at 0.5 to 8 times MIC; format: cell membranes
Acinetobacter baumannii [3] = experiment: Antibacterial activity against Acinetobacter baumannii assessed as reduction in metabolic activity by alamar blue staining based assay; format: functional, organism-based
Acinetobacter baumannii [4] = experiment: Antibacterial activity against Acinetobacter baumannii assessed as inhibition of bacterial growth incubated for 18 hrs by two fold broth microdilution assay; format: functional
Acinetobacter baumannii [5] = experiment: Induction of oxidative stress in Acinetobacter baumannii assessed as decrease in GSH activity by Ellman's method; format: functional, organism-based
Escherichia coli [6] = experiment: Antibacterial activity against Escherichia coli ATCC 25922 assessed as increase in intracellular ROS production by DCFH-DA staining based assay; format: functional, organism-based
Acinetobacter baumannii [7] = experiment: Antibacterial activity against Acinetobacter baumannii assessed as reduction in LDH activity; format: functional, organism-based
Calf thymus DNA [8] = experiment: Binding affinity to calf thymus DNA assessed as decrease in fluorescence intensity of AO-DNA binding by acridine orange probe based competitive binding assay; format: nucleic-acid assay; details: Bos taurus
Acinetobacter baumannii [9] = experiment: Antibacterial activity against Acinetobacter baumannii assessed as increase in intracellular ROS production by measuring green fluorescence by DCFH-DA staining based microscopic analysis; format: functional, organism-based
Staphylococcus aureus [10] = experiment: Antibacterial activity against Staphylococcus aureus ATCC 29213 assessed as inhibition of bacterial growth incubated for 18 hrs by two fold broth microdilution assay; format: functional
Enterococcus faecalis = experiment: Antibacterial activity against Enterococcus faecalis assessed as inhibition of bacterial growth incubated for 18 hrs by two fold broth microdilution assay; format: functional
Cell membrane [11] = experiment: Induction of cell membrane disruption in Escherichia coli ATCC 25922 assessed as cell membrane shrank at 2 times MIC by scanning electron microscopic analysis; format: cell membranes
Acinetobacter baumannii [12] = experiment: Antibacterial activity against Acinetobacter baumannii assessed as reduction in biofilm formation at 8 times MIC relative to control; format: functional; parameters: scale not given: the % may be the effect or the level left
[13] = Cytotoxicity against human Colon epithelial cell at 20 ug/ml; format: toxicity, cell-based; details: dose 20 µg/ml
Cell membrane [14] = experiment: Induction of outer membrane permeabilization in Escherichia coli ATCC 25922 assessed as increase in fluorescence intensity by NPN-dye based fluorescence analysis; format: cell membranes
Escherichia coli [15] = experiment: Antibacterial activity against Escherichia coli ATCC 25922 assessed as reduction in biofilm formation; format: functional, organism-based
Cell membrane [16] = experiment: Induction of cell membrane disruption in Acinetobacter baumannii assessed as cell membrane shrank at 2 times MIC by scanning electron microscopic analysis; format: cell membranes
Cell membrane [17] = experiment: Induction of membrane depolarization in Acinetobacter baumannii assessed as increase in fluorescence intensity at 1 to 8 times MIC by DiSC3(5) dye-based fluorescence assay; format: cell membranes; details: TDE = time-dependent effect
Cell membrane [18] = experiment: Induction of membrane depolarization in Acinetobacter baumannii assessed as increase in fluorescence intensity measured at 20 to 120 min by DiSC3(5) dye-based fluorescence assay; format: cell membranes; details: time 20-120 min
[19] = Hemolytic activity in human RBC assessed as hemolysis at 512 ug/ml incubated for 1 hr relative to control; format: toxicity, cell-based, Erythrocyte; details: human red blood cells (erythrocytes), at 512 µg/mL, read-out: Activity
Acinetobacter baumannii [20] = experiment: Bactericidal activity against Acinetobacter baumannii assessed as reduction in colony forming unit at MIC by time-kill kinetic assay; format: functional
Cell membrane [21] = experiment: Induction of inner membrane permeabilization in Acinetobacter baumannii assessed as increase in fluorescence intensity by PI staining based fluorescence analysis; format: cell membranes
Staphylococcus aureus [22] = experiment: Antibacterial activity against Staphylococcus aureus assessed as inhibition of bacterial growth incubated for 18 hrs by two fold broth microdilution assay; format: functional
Cell membrane [23] = experiment: Induction of inner membrane damage in Acinetobacter baumannii at 1 to 4 times MIC by PI staining fluorescence microscopy; format: cell membranes
Escherichia coli [24] = experiment: Antibacterial activity against Escherichia coli ATCC 25922 assessed as reduction in biofilm formation at 8 times MIC relative to control; format: functional; parameters: scale not given: the % may be the effect or the level left
Escherichia coli [25] = experiment: Antibacterial activity against Escherichia coli ATCC 25922 assessed as inhibition of bacterial growth incubated for 18 hrs by two fold broth microdilution assay; format: functional
Pseudomonas aeruginosa [26] = experiment: Antibacterial activity against Pseudomonas aeruginosa assessed as inhibition of bacterial growth incubated for 18 hrs by two fold broth microdilution assay; format: functional
Cell membrane [27] = experiment: Induction of membrane depolarization in Escherichia coli ATCC 25922 assessed as increase in fluorescence intensity at 1 to 8 times MIC by DiSC3(5) dye-based fluorescence assay; format: cell membranes; details: TDE = time-dependent effect
Staphylococcus aureus [28] = experiment: Antibacterial activity against methicilin-resistant Staphylococcus aureus N315 assessed as inhibition of bacterial growth incubated for 18 hrs by two fold broth microdilution assay; format: functional
[29] = Cytotoxicity against human Squamous epithelial cell assessed as cell viability upto 50 ug/ml relative to control; format: toxicity, cell-based; details: squamous epithelial cells, up to 50 µg/mL, read-out: Activity
Escherichia coli [30] = experiment: Antibacterial activity against Escherichia coli assessed as inhibition of bacterial growth incubated for 18 hrs by two fold broth microdilution assay; format: functional
Acinetobacter baumannii [31] = experiment: Induction of drug resistance against Acinetobacter baumannii assessed as fold increase at MIC measured after 16 passages; format: functional
Acinetobacter baumannii [32] = experiment: Bactericidal activity against Acinetobacter baumannii assessed as reduction in bacterial growth at 4 times MIC observed after 2 hrs by time-kill kinetic assay; format: functional; parameters: scale not given: the % may be the effect or the level left
Cell membrane [33] = experiment: Induction of outer membrane permeabilization in Acinetobacter baumannii assessed as increase in fluorescence intensity by NPN-dye based fluorescence analysis; format: cell membranes
Cell membrane [34] = experiment: Induction of inner membrane permeabilization in Escherichia coli ATCC 25922 assessed as increase in fluorescence intensity by PI staining based fluorescence analysis; format: cell membranes
Klebsiella pneumoniae = experiment: Antibacterial activity against Klebsiella pneumoniae assessed as inhibition of bacterial growth incubated for 18 hrs by two fold broth microdilution assay; format: functional
Erythrocyte = experiment: Hemolytic activity in human RBC assessed as intact cell surface at 512 ug/ml incubated for 1 hr by microscopic analysis; format: toxicity, cell-based; details: dose 512 µg/ml
[35] = Cytotoxicity against human Colon epithelial cell assessed as cell viability upto 50 ug/ml relative to control; format: toxicity, cell-based; details: colon epithelial cells, up to 50 µg/mL, read-out: Activity
[36] = Cytotoxicity against human Squamous epithelial cell at 20 ug/ml; format: toxicity, cell-based; details: dose 20 µg/ml
Escherichia coli [37] = experiment: Induction of oxidative stress in Escherichia coli ATCC 25922 assessed as decrease in GSH activity by Ellman's method; format: functional, organism-based
Cell membrane [38] = experiment: Induction of membrane depolarization in Escherichia coli ATCC 25922 assessed as increase in fluorescence intensity measured at 20 to 120 min by DiSC3(5) dye-based fluorescence assay; format: cell membranes; details: time 20-120 min
Escherichia coli [39] = experiment: Bactericidal activity against Escherichia coli ATCC 25922 assessed as reduction in colony forming unit at MIC by time-kill kinetic assay; format: functional
Cell membrane [40] = experiment: Induction of cell membrane disruption in Acinetobacter baumannii assessed as increase in protein leakage at 0.5 to 8 times MIC; format: cell membranes
Acinetobacter baumannii [41] = experiment: Antibacterial activity against Acinetobacter baumannii assessed as reduction in biofilm formation; format: functional, organism-based
Escherichia coli [42] = experiment: Induction of drug resistance against Escherichia coli ATCC 25922 assessed as fold increase at MIC measured after 16 passages; format: functional
Acinetobacter baumannii [43] = experiment: Antibacterial activity against Acinetobacter baumannii assessed as increase in intracellular ROS production by DCFH-DA staining based assay; format: functional, organism-based
Calf thymus DNA [44] = experiment: Binding affinity to calf thymus DNA assessed as DNA intercalation by measuring hypochromic shift by absorbance based UV-Vis spectroscopic analysis; format: nucleic-acid assay; details: Bos taurus
Escherichia coli [45] = experiment: Bactericidal activity against Escherichia coli ATCC 25922 assessed as reduction in bacterial growth at 4 times MIC observed after 2 hrs by time-kill kinetic assay; format: functional; parameters: scale not given: the % may be the effect or the level left
Escherichia coli [46] = experiment: Antibacterial activity against Escherichia coli ATCC 25922 assessed as reduction in LDH activity; format: functional, organism-based
Escherichia coli [47] = experiment: Antibacterial activity against Escherichia coli ATCC 25922 assessed as increase in intracellular ROS production by measuring green fluorescence by DCFH-DA staining based microscopic analysis; format: functional, organism-based
Escherichia coli [48] = experiment: Antibacterial activity against Escherichia coli ATCC 25922 assessed as reduction in metabolic activity by alamar blue staining based assay; format: functional, organism-based
Staphylococcus aureus [49] = experiment: Antibacterial activity against Staphylococcus aureus ATCC 25923 assessed as inhibition of bacterial growth incubated for 18 hrs by two fold broth microdilution assay; format: functional
Cell membrane [50] = experiment: Induction of inner membrane damage in Escherichia coli ATCC 25922 at 1 to 4 times MIC by PI staining fluorescence microscopy; format: cell membranes

Q: What does the source list for `N#C/C(=C\c1cn(CCO)c2ccccc12)S(=O)(=O)c1ccc(N)cc1`?
A: MIC (Pseudomonas aeruginosa [1]): 4 µg/mL (≈ 10.9 µM); Activity (Cell membrane [2]): Active; Activity (Acinetobacter baumannii [3]): Dose-Dependent Effect; MIC (Acinetobacter baumannii [4]): 0.5 µg/mL (≈ 1.36 µM); Activity (Acinetobacter baumannii [5]): Dose-Dependent Effect; Activity (Escherichia coli [6]): Dose-Dependent Effect; Activity (Acinetobacter baumannii [7]): Dose-Dependent Effect; Activity (Calf thymus DNA [8]): Active; Activity (Acinetobacter baumannii [9]): Dose-Dependent Effect; MIC (Staphylococcus aureus [10]): 2 µg/mL (≈ 5.44 µM); MIC (Enterococcus faecalis): 4 µg/mL (≈ 10.9 µM); Activity (Cell membrane [11]): Active; Activity (Acinetobacter baumannii [12]): 39%; Activity [13]: Non-Toxic; Activity (Cell membrane [14]): Dose-Dependent Effect; Activity (Escherichia coli [15]): Dose-Dependent Effect; Activity (Cell membrane [16]): Active; Activity (Cell membrane [17]): Tde; Activity (Cell membrane [18]): Dose-Dependent Effect; hemolysis at 1 h, 512 ug/ml [19]: < 3%; Activity (Acinetobacter baumannii [20]): 2 log10CFU; Activity (Cell membrane [21]): Dose-Dependent Effect; MIC (Staphylococcus aureus [22]): 2 µg/mL (≈ 5.44 µM); Activity (Cell membrane [23]): Active; Activity (Escherichia coli [24]): 21%; MIC (Escherichia coli [25]): 0.5 µg/mL (≈ 1.36 µM); MIC (Pseudomonas aeruginosa [26]): 2 µg/mL (≈ 5.44 µM); Activity (Cell membrane [27]): Tde; MIC (Staphylococcus aureus [28]): 2 µg/mL (≈ 5.44 µM); viability [29]: > 85%; MIC (Escherichia coli [30]): 8 µg/mL (≈ 21.8 µM); fold change (FC) (Acinetobacter baumannii [31]): 8; Activity (Acinetobacter baumannii [32]): 57%; Activity (Cell membrane [33]): Dose-Dependent Effect; Activity (Cell membrane [34]): Dose-Dependent Effect; MIC (Klebsiella pneumoniae): 8 µg/mL (≈ 21.8 µM); Activity (Erythrocyte): Non-Toxic; viability [35]: > 85%; Activity [36]: Non-Toxic; Activity (Escherichia coli [37]): Dose-Dependent Effect; Activity (Cell membrane [38]): Dose-Dependent Effect; Activity (Escherichia coli [39]): 2.5 log10CFU; Activity (Cell membrane [40]): Active; Activity (Acinetobacter baumannii [41]): Dose-Dependent Effect; fold change (FC) (Escherichia coli [42]): 8; Activity (Acinetobacter baumannii [43]): Dose-Dependent Effect; Activity (Calf thymus DNA [44]): Active; Activity (Escherichia coli [45]): 57%; Activity (Escherichia coli [46]): Dose-Dependent Effect; Activity (Escherichia coli [47]): Dose-Dependent Effect; Activity (Escherichia coli [48]): Dose-Dependent Effect; MIC (Staphylococcus aureus [49]): 1 µg/mL (≈ 2.72 µM); Activity (Cell membrane [50]): Active
